“Also recorded” adds a separate entry of the source. Read-outs that look alike come from different tables or passages of the source.
How the values were obtained:
[1] = tested on: TTX-R sodium channel of DRG neurons; assay: Whole-cell patch-clamp, TTX-R sodium currents in DRG neurons; assay type: cell-based, adult Sprague-Dawley rat
domain II of Nav1.7 = conditions: in words; ref [11]; cited from earlier work
[2] = tested on: neuronal TTX-sensitive voltage-gated sodium channels; conditions: cited from earlier work
Nav1.7 = assay: Triple-pulse protocol, recovery of Nav1.7 current following strong depolarization (HEK293 cells); assay type: cell-based
[3] = tested on: TTX-S sodium channels in rat DRG neurons; assay: Current-voltage relationship, conductance, steady-state activation and inactivation of TTX-S sodium channel; assay type: cell-based
[4] = tested on: TTX-S sodium channels in rat DRG neurons; assay: Time course for block of TTX-S currents and reversal of block on washing; assay type: cell-based
sodium channel = conditions: cited from earlier work
Description: Huwentoxin-IV (HWTX-IV), a tetrodotoxin-sensitive (TTX-s) sodium channel antagonist, is found in the venom of the Chinese spider Ornithoctonus huwena. A naturally modified HWTX-IV (mHWTX-IV), having a molecular mass 18 Da lower than HWTX-IV, has also been isolated from the venom of the same spider. […] Previous research has identified nearly 150 of these components in the Chinese bird spider, Ornithoctonus huwena, which is one of the most venomous spiders in China. […] To address this question, we adopted a triple-pulse protocol in which a test pulse (−10 mV) following a strong depolarization (+200 mV, 500 ms) was used to measure available TTX-S sodium currents.

[5] = tested on: TTX-resistant voltage-gated sodium channels; conditions: in words; reference not given; cited from earlier work
Description: Previous research has identified nearly 150 of these components in the Chinese bird spider, Ornithoctonus huwena, which is one of the most venomous spiders in China. Most of the toxins have six cystine residues adopting inhibitor cystine-knot (ICK) motif with a 1–4, 2–5, 3–6 disulfide bonding pattern; the biological activities of some peptide toxins were thoroughly investigated.

[6] = tested on: TTX-S voltage-gated sodium channel of DRG neurons; assay: Whole-cell patch-clamp, inhibition of TTX-S sodium currents in DRG neurons; assay type: cell-based, adult Sprague-Dawley rat
DRG neuron = tested on: DRG neuron; design: method as in PMID 16267209, PMID 19409400; conditions: in words; ref [27], [28]; cited from earlier work

## Huwentoxin-IV [HWTX-IV]
[1]
  Effect on TTX-R sodium currents: no effect
Domain II of Nav1.7
  Binding site on Nav1.7: binds with the S3–S4 linker D816 and E818 in domain II of Nav1.7 by electrostatic interaction
[2]
  Inhibition of TTX-S sodium channel in DRG neurons (literature): specifically inhibited
[2]; read-out: IC50, inhibition of neuronal TTX-sensitive sodium channels (literature)
  IC50: 30 nM
Nav1.7; 1 µM toxin, HEK293 cells, +50 mV for 500 ms, in words
  Recovery of Nav1.7 current, +50 mV: little recovery
Nav1.7; 1 µM toxin, HEK293 cells, +100 mV for 500 ms, in words
  Recovery of Nav1.7 current, +100 mV: little recovery
Nav1.7; 1 µM toxin, HEK293 cells, +150 mV, five cells
  Recovery of Nav1.7 current, +150 mV: about 34%
Nav1.7; 1 µM toxin, HEK293 cells, +200 mV, five cells
  Recovery of Nav1.7 current, +200 mV: ~78%
Nav1.7; abstract summary, in words
  Recovery of Nav1.7 current by extreme depolarization (summary): voltage-dependent and was induced by extreme depolarization
[3]
  Channel conductance (conductance–voltage curve): did not change channel conductance
  Steady-state activation and inactivation, comparison of HWTX-IV and mHWTX-IV: no obvious difference
  Steady-state inactivation of TTX-S sodium channel: No shift of the steady-state inactivation curve
  Threshold of activation and reversal potential of TTX-S sodium channel (I–V): did not change the threshold of activation and alter the reversal potential
[4]
  Dissociation after washing, in words: slowly dissociated
  Time course for inhibition of TTX-S currents: 25.4 s
  Time course of dissociation after washing: 88.3 s
Sodium channel
  Dissociation at moderate depolarization: dissociates at moderate voltage depolarization voltages
  Reversal of binding to sodium channels by strong depolarization (literature): can be reversed by strong depolarization
  Reversibility of inhibition by strong depolarization (literature): reversible by strong depolarization
  Voltage above which currents can be observed (dissociation by strong depolarization): > 70 mV
[5]
  Effect on TTX-resistant sodium channels (literature): no significant effect
[6]
  IC50: 42.9 ± 1.72 nM
  Inhibition of TTX-S currents: almost completely inhibited; also recorded: significantly reduced

## Jingzhaotoxin-IX [JZTX-IX]
DRG neuron
  Action under extreme depolarization on DRG neuron compared with mHWTX-IV: similar

## ProTx-II
Sodium channel; in words, ref [11], [19], [20]
  Reversal of binding to sodium channels by strong depolarization (literature): can be reversed by strong depolarization

## jingzhaotoxin-34 [JZTX-34]
[2]; in words, ref [9]
  Inhibition of neuronal TTX-sensitive sodium channels (literature): inhibited neuronal TTX-sensitive voltage-gated sodium channels
